Test results: patent publication US9718825B2, “N-(4-(azaindazol-6-yl)-phenyl)-sulfonamides and their use as pharmaceuticals” (priority 2013, dated 2017)
Read-outs that look alike come from different tables or passages of the source.

Columns and labels:
[1] = target: recombinant human SGK-1 enzyme (Homo sapiens, UniProt O00141); experiment: Enzymatic activity assay: SGK-1 substrate peptide phosphorylation (Caliper lab-chip mobility shift); type: biochemical; conditions: peptide substrate 1 μM, ATP 10 μM, 60 min at 37° C., read-out: IC50 values for inhibition of SGK-1 enzymatic activity
[2] = test system: SGK-1 dependent phosphorylation of GSK3beta in U2OS cells; experiment: SGK-1 dependent phosphorylation of GSK3beta in U2OS cells overexpressing recombinant SGK-1 and GSK3beta; type: cell-based, human; conditions: U2OS cells, 6 h incubation, ratio of phosphorylated GSK3beta to total GSK3beta, read-out: IC50 values for inhibition of SGK-1 dependent phosphorylation of GSK3beta in U2OS cells
[3] = test system: SGK-1 dependent activation of ENaC-currents in A6 cell monolayers; experiment: Functional electrophysiological assay (Ussing chamber): SGK-1 dependent activation of ENaC-currents in A6 cell monolayers; type: cell-based, Xenopus laevis; conditions: hypoosmotic shock 45 min, amiloride-sensitive ΔI'sc, read-out: IC50 values for inhibition of SGK-1 dependent activation of ENaC-currents in A6 cell monolayers
Procedure: C) Functional Electrophysiological Assay for Determination of SGK-1 Dependent Activation of ENaC-Currents in A6 Cell Monolayers
Cells were grown in cell culture flasks (Nunc) at 28° C. in a humidified atmosphere with 4% CO2. The culture medium contained a 7:3 mixture of Leibovitz's L-15 (Sigma-Aldrich)/Coon's (Sigma-Aldrich) media supplemented with 10% fetal bovine serum (PAA), 20% sterile water, 25 mM NaHCO3 (Sigma-Aldrich), 100 U/ml penicillin (PAA) and 100 μg/ml streptomycin (PAA). The osmolality of the medium was 270 mOsml/kg H2O). Cells were detached with accutase (PAA) and seeded for electrophysiological measurements into transwell filter inserts (polyester 0.4 μm pore size, Corning) at a density of 0.4×10^6 cells/filter. Cells were cultivated for 7-10 days, and confluent A6 cell monolayers were identified by repetitive resistance measurements in cell culture medium using an EVOM^2 ohmmeter (World Precision Instruments). Monolayers with a resistance of >10 kOhm were considered confluent. Filters with confluent A6 cells were transferred into a continuously perfused Ussing-chamber, and electrophysiological parameters were measured under open circuit conditions using a transepithelial clamp amplifier (EP Design). Short circuit current (I′sc) was calculated by Ohm's law. […] The pH was adjusted to 8.2. All measurements were done at room temperature.
To evaluate the effects of SGK inhibitors on ENaC-mediated transepithelial currents, A6 monolayers were first equilibrated for 5 min with isoosmotic Ringer solution from both the luminal and basolateral side of the cell layer. Amiloride was applied to the luminal site to establish the basal ENaC-dependent current (I′scbasal). Cell layers were then perfused from the basolateral side for 10 min with compounds in isotonic buffer or control isotonic buffer. SGK signaling leading to increased ENaC activity and subsequent increase in I′sc was stimulated by application of hypoosmotic Ringer-solution for 45 min to both sides of the A6 cell layer. ENaC-dependent I′sc after the hypoosmotic shock (I′schypo) was determined by application of amiloride at the end of the experiment. Total changes of amiloride-sensitive Isc was calculated as ΔI′sc=I′schypo−I′scbasal. […] The inhibition of ΔI′sc by the test compounds was determined relative to the ΔI′sc measured with control monolayers which were not treated with the test compound.

[4] = test system: collagen type X (Col10a1) expression in mouse chondrogenic ATDC5 cells; experiment: Chondrocyte hypertrophic differentiation in mouse chondrogenic ATDC5 cells (collagen type X expression); type: cell-based; conditions: Col10a1 expression by quantitative real-time PCR after two weeks of cell culture, read-out: IC50 values for the inhibition of collagen type X expression in mouse chondrogenic ATDC5 cells
Source text: D) Determination of the effect on chondrocyte hypertrophic differentiation in mouse chondrogenic ATDC5 cells
The ATDC5 cell assay was used as in vitro model to determine the effects of the compounds of the invention on chondrocyte hypertrophic differentiation by monitoring the expression levels of collagen type X (Col10a1) as specific marker of chondrocyte hypertrophy.
Background: ATDC5 cells are a clonal mouse embryonic cell line derived from multipotent AT805 teratocarcinoma cells (Atsumi, T. et al., A chondrogenic cell line derived from a differentiating culture of AT805 teratocarcinoma cells, Cell Differ. Dev. 1990, 30, 109-116). The cells can undergo insulin-dependent chondrogenic cell differentiation entailing distinct differentiation stages starting from an undifferentiated, subconfluent stage, a condensation stage, a cartilage nodule formation stage and a calcification stage within 45 days of in vitro culture. Chondrogenic differentiation can be shown by measuring the expression of the cartilage main collagen (Col2a1) and aggrecan (AGC1) and glycosaminoglycan-staining with Alcian Blue within two weeks after insulin-triggered differentiation, and hypertrophic differentiation can be monitored by the expression of collagen type X (Col10a1), a specific marker of chondrocyte hypertrophy within 21 days of in vitro culture. (Shukunami, C. et al., Chondrogenic Differentiation of Clonal Mouse Embryonic Cell Lne ATDC5 In Vitro: Differentiation-dependent Gene Expression of Parathyroid Hormone (PTH)/PTH-related Peptide Receptor, J. Cell Biol. 1996, 133, 457-468). Growth factor BMP-2 is known to stimulate cell differentiation and can stimulate early and late-phase ATDC5 differentiation (Shukunami, C. et al., Sequential Progression of the Differentiation Program by Bone Morphogenetic Protein-2 in Chondrogenic Cell Line ATDC5, Exp. Cell Res. 1998, 241, 1-11). Thyroid hormone triiodothyronine (T3) promotes hypertrophic differentiation of growth plate chondrocytes (Robson, H. et al., Thyroid Hormone Acts Directly on Growth Plate Chondrocytes to Promote Hypertrophic Differentiation and Inhibit Clonal Expansion and Cell Proliferation, Endocrinology 2000, 141, 3887-3897). Addition of BMP2 and T3 can accelerate ATDC5 hypertrophic differentiation leading to the strong induction Col10a1 expression between 10-14 days. SGK-inhibitors were added to differentiating ATDC5 cells for 14 days and Col10a1 gene expression was quantified to determine effects on chondrocyte hypertrophic differentiation.
Cell assay description: ATDC5 cells were maintained in 300 cm^2 tissue culture flasks in DMEM/Ham's F12+5% FCS supplemented with 10 μg/ml human transferrin, 30 nM sodium selenite, 50 μg/ml kanamycin and grown at 37° C. in 5% CO2 in 95% air. To initiate cell differentiation, 9.9×10^4 cells were plated in 24 well plates and grown for 2 days. Medium was exchanged with DMEM/Ham's F12+5% FCS supplemented with 10 μg/ml human transferrin, 30 nM sodium selenite, 50 μg/ml ascorbic acid and 1 μg/ml BMP2. The assay was run in triplicates, compounds were added in […], and medium changed every 2-3 days including supplementation of compound. At day 7 after initiation of cell differentiation, 1 μM T3 was used as additional supplement in the cell culture.
After two weeks of cell culture, RNA was isolated and converted to cDNA for determination of gene expression by quantitative real-time PCR. Cells were lysed in 600 μl of RLT-buffer (Qiagen) and total RNA was isolated using the RNA-easy Mini RNA isolation Kit (Qiagen) which was run on a Qiacube system (Qiagen) according to the supplier's instructions. RNA was isolated in 30 μl of pure water and the RNA content measured by UV-spectroscopy (Nanodrop, Peqlab). For cDNA synthesis 50 ng total RNA was reverse transcribed using the High Capacity cDNA Reverse Transcription Kit (Applied Biosystems, Product Number 4368813) according to the manufacturer's instructions. […]

[5] = Mus musculus, Chondrocyte, 336 h

Sequence of recombinant human SGK-1 enzyme (O00141 whole entry, looked up): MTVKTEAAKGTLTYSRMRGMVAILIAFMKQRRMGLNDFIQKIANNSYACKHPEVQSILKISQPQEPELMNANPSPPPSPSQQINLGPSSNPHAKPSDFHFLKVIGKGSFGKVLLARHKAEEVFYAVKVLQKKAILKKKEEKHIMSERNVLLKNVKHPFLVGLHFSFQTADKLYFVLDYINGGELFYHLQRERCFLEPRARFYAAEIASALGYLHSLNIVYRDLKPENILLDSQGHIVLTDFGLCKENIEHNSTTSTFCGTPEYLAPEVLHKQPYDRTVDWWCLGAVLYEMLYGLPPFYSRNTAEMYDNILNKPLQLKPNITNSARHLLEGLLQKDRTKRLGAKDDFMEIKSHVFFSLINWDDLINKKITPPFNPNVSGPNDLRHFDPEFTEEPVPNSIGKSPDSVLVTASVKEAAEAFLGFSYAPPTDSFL

Compound	IC50 [1] [nM]	IC50 [2] [nM]	IC50 [3] [nM]	IC50 [4] [nM]	IC50 ([2]; Homo sapiens) [nM]	IC50 ([3]; Xenopus laevis, INA-6, 0.75 h) [nM]	IC50 [4, 5] [nM]
Nc1n[nH]c2cc(-c3ccc(NS(=O)(=O)c4cc(Cl)ccc4Cl)cc3)ncc12 [Example 556]	1.7	1700	2000				
CC(C)COc1nc(-c2ccc(NS(=O)(=O)c3cc(Cl)ccc3Cl)cc2)nc2[nH]nc(N)c12 [Example 310]	130	220	10000				
Cc1ccc(F)c(S(=O)(=O)Nc2ccc(-c3nc(OCC(C)C)c4c(N)n[nH]c4n3)cc2)c1 [Example 317]	11	210	10000				
Cc1nc(-c2ccc(NS(=O)(=O)c3cc(Cl)ccc3Cl)cc2)nc2[nH]nc(N3CCC4(CC3)COC4)c12 [Example 496]	6.2	7000		140			
O=S(=O)(Nc1ccc(-c2nc(OC3CCC(O)CC3)c3cn[nH]c3n2)cc1F)c1cc(Cl)ccc1Cl (stereo not shown) [Example 439]	2.5	110		44			
COc1ccc(Cl)c(S(=O)(=O)Nc2ccc(-c3ncc4c(N)n[nH]c4n3)cc2)c1 [Example 461]	< 1.5	260	180				
Nc1n[nH]c2cc(-c3ccc(NS(=O)(=O)c4cc(Cl)c(F)cc4F)cc3)ncc12 [Example 555]	< 1.5	3800	600				
O=S(=O)(Nc1ccc(-c2nc(OC3CCC(O)CC3)c3cn[nH]c3n2)cc1F)c1cc(Cl)ccc1F (stereo not shown) [Example 440]	< 1.5	240		81			
N#Cc1ccc(Cl)cc1S(=O)(=O)Nc1ccc(-c2ncc3c(N)n[nH]c3n2)cc1 [Example 446, N-[4-(3-Amino-1H-pyrazolo[3,4-d]pyrimidin-6-yl)-phenyl]-5-chloro-2-cyano-benzenesulfonamide]					3700	190	550
Cc1n[nH]c2nc(-c3ccc(NS(=O)(=O)c4cc(Cl)ccc4F)cc3)nc(OC3CCN(C(C)C)CC3)c12 [Example 346]	3.2		2000	66			
Cc1nc(-c2ccc(NS(=O)(=O)c3cc(Cl)ccc3C#N)cc2)nc2[nH]nc(N)c12 [Example 465]	< 1.5	1200		700			
Cc1n[nH]c2nc(-c3ccc(NS(=O)(=O)c4cc(F)ccc4F)cc3)nc(OC3CCCNC3)c12 (stereo not shown) [Example 321]	6.9	38		680			
Cc1ccc(C#N)c(S(=O)(=O)Nc2ccc(-c3ncc4c(N)n[nH]c4n3)cc2)c1 [Example 453]	1.6	2100		550			
Cc1n[nH]c2nc(-c3ccc(NS(=O)(=O)c4cc(Cl)ccc4Cl)cc3)nc(OC3CCCNC3)c12 (stereo not shown) [Example 322]	2.6	26		8			
Cc1n[nH]c2nc(-c3ccc(NS(=O)(=O)c4cc(F)ccc4F)cc3)nc(OC3CCN(C4CCC4)CC3)c12 [Example 398]	25			7.2			
CCN1CCCC(Oc2nc(-c3ccc(NS(=O)(=O)c4cc(OC)ccc4F)cc3)nc3[nH]nc(C)c23)C1 (stereo not shown) [Example 424]	13			62			
CC(C)COc1nc(-c2ccc(NS(=O)(=O)c3cc(F)ccc3F)cc2)nc2[nH]nc(N)c12 [Example 328]	170	150		94			
CCN1CCCC(Oc2nc(-c3ccc(NS(=O)(=O)c4cc(Cl)ccc4Cl)cc3)nc3[nH]nc(C)c23)C1 (stereo not shown) [Example 422]	40			110			
CCN1CCCC(Oc2nc(-c3ccc(NS(=O)(=O)c4cc(Cl)ccc4F)cc3)nc3[nH]nc(C)c23)C1 (stereo not shown) [Example 418]	40			30			
Cc1ccc(C#N)c(S(=O)(=O)Nc2ccc(-c3nc(OC4CCC(O)CC4)c4c(C)n[nH]c4n3)cc2)c1 (stereo not shown) [Example 96]	< 1.5	740		33			
O=S(=O)(Nc1ccc(-c2nc(OC3CCC(O)CC3)c3cn[nH]c3n2)cc1)c1cc(Cl)ccc1F (stereo not shown) [Example 3, 5-Chloro-2-fluoro-N-{4-[4-(4-hydroxy-cyclohexyloxy)-1H-pyrazolo[3,4-d]pyrimidin-6-yl]-phenyl}-benzenesulfonamide]						3400	52
COCCCN1CCC(Oc2nc(-c3ccc(NS(=O)(=O)c4cc(F)ccc4F)cc3)nc3[nH]ncc23)CC1 [Example 394]	120			290			
COc1ccc(F)c(S(=O)(=O)Nc2ccc(-c3nc(OC4CCN(C(C)C)CC4)c4c(C)n[nH]c4n3)cc2)c1 [Example 357]	3.6			61			
Cc1n[nH]c2nc(-c3ccc(NS(=O)(=O)c4cc(F)ccc4F)cc3)nc(OC3CCN(CCF)CC3)c12 [Example 344]	5			16			
Cc1n[nH]c2nc(-c3ccc(NS(=O)(=O)c4cc(F)ccc4F)cc3)nc(OC3CCN(C(C)C)CC3)c12 [Example 349]	8.4		3200	380			
